IC50 data for 59 compounds are collected here from patent publication US7507727B2, “Substituted quinobenzoxazine analogs and methods of using thereof” (Cylene Pharmaceuticals, Inc., priority 2003, dated 2009).

The structures appear in SMILES notation. Where only a bound is given, the exact number is not on record here.

In the first assay the target is c-Myc template DNA (c-myc quadruplex). In words: Quadruplex binding / stop assay (Taq polymerase arrest, capillary electrophoresis). As to conditions: read-out: S DATA; Table 1D, stop assay data.
Turning to `CN1CCCC1CCNC(=O)c1cn2c3c(c(-n4cncc4-c4cnccn4)c(F)cc3c1=O)Oc1cc3ccccc3cc1-2` (centres unmarked) [compound 1761], the IC50 is 1.75 µM.

As for `CC1CCCC(C)N1CCCNC(=O)c1cn2c3c(c(N4CCC(N)C4)c(F)cc3c1=O)Oc1cc3ccccc3cc1-2` (centres unmarked) [compound 1713], the IC50 is 0.75 µM.

For the compound `CN1CCCC1CCNC(=O)c1cn2c3c(c(NCCN4CCOCC4)ccc3c1=O)Oc1cc3ccccc3cc1-2` (centres unmarked) [compound 1547], the IC50 was more than 15 µM.

For the compound `CN1CCN(CCCNc2ccc3c(=O)c(C(=O)NCCN4CCOCC4)cn4c3c2Oc2cc3ccccc3cc2-4)CC1` [compound 1556], the IC50 turned out to be 1.75 µM.

Regarding `O=C(NCCCN1CCOCC1)c1cn2c3c(c(NCCN4CCOCC4)ccc3c1=O)Oc1cc3ccccc3cc1-2` [compound 1548], the IC50 was more than 15 µM.

As for `O=C(NCCCN1CCOCC1)c1cn2c3c(c(NCCN4CCCC4)ccc3c1=O)Oc1cc3ccccc3cc1-2` [compound 1518], the IC50 turned out to be 1.75 µM.

In the case of `CN1CCCC1CCNC(=O)c1cn2c3c(c(SCCc4cnccn4)c(F)cc3c1=O)Oc1ccc(Cl)cc1-2` (centres unmarked) [compound 1787], the IC50 is more than 15 µM.

Take `CN1CCC[C@H]1CCNC(=O)c1cn2c3c(c(N4CCC(c5cnccn5)C4)c(F)cc3c1=O)Oc1ccccc1-2` (some centres unmarked) [compound 1762]: the IC50 was determined as 5.7 µM.

On to `CN1CCN(CCCNc2c(F)cc3c(=O)c(C(=O)NCCCCNC(=N)N)cn4c3c2Oc2ccccc2-4)CC1` [compound 1631], for which the IC50 is more than 15 µM.

As for `CC(C)N1CCN(c2c(F)cc3c(=O)c(C(=O)N4CCN(C)CC4)cn4c3c2Oc2ccccc2-4)CC1` [compound 1570], the IC50 is more than 15 µM.

On to `CN(C)CC(C)(C)CNC(=O)c1cn2c3c(c(NCCCN4CCOCC4)c(F)cc3c1=O)Oc1cc3ccccc3cc1-2` [compound 1652], for which the IC50 came to 1 µM.

For the compound `COc1ccc2[nH]cc(CCNC(=O)c3cn4c5c(c(N6CCC(N)C6)c(F)cc5c3=O)Oc3cc5ccccc5cc3-4)c2c1` (centres unmarked) [compound 1699], the IC50 amounted to 1.75 µM.

Take `COc1ccccc1CCNC(=O)c1cn2c3c(c(N4CCC(N)C4)c(F)cc3c1=O)Oc1cc3ccccc3cc1-2` (centres unmarked) [compound 1711]: the IC50 was more than 15 µM.

For the compound `CN1CCCC1CCNC(=O)c1cn2c3c(c(N4CCC(NC(=O)OC(C)(C)C)C4)c(F)cc3c1=O)Oc1ccccc1-2` (centres unmarked) [compound 1587], the IC50 was more than 15 µM.

In the case of `CN1CCCC1CCNc1ccc2c(=O)c(C(=O)NCCN3CCCC3)cn3c2c1Oc1cc2ccccc2cc1-3` (centres unmarked) [compound 1522], the IC50 is 0.75 µM.

Regarding `NC1CCN(c2c(F)cc3c(=O)c(C(=O)NCCc4ccc(O)c(O)c4)cn4c3c2Oc2cc3ccccc3cc2-4)C1` (centres unmarked) [compound 1706], the IC50 is more than 15 µM.

Take `CN1CCCC1CCNC(=O)c1cn2c3c(c(N4CCC(N5CCCC5)CC4)c(F)cc3c1=O)Oc1cc3ccccc3cc1-2` (centres unmarked) [compound 1492]: the IC50 worked out at 0.75 µM.

For `N=C(N)NCCCNC(=O)c1cn2c3c(c(NCCN4CCCC4)c(F)cc3c1=O)Oc1cc3ccccc3cc1-2` [compound 1654], the IC50 came out at 1 µM.

With `CN1CCN(CCCNC(=O)c2cn3c4c(c(NCCN5CCCC5)c(F)cc4c2=O)Oc2ccccc2-3)CC1` [compound 1594], the IC50 was more than 15 µM.

For `O=C(NCCN1CCOCC1)c1cn2c3c(c(NCCN4CCOCC4)ccc3c1=O)Oc1cc3ccccc3cc1-2` [compound 1551], the IC50 was more than 15 µM.

In the case of `Cc1cc(CNc2c(F)cc3c(=O)c(C(=O)NCCC4CCCN4C)cn4c3c2Oc2cc3ccccc3cc2-4)no1` (centres unmarked) [compound 1753], the IC50 is more than 15 µM.

`COc1ccc2[nH]cc(CCNc3c(F)cc4c(=O)c(C(=O)NCCC5CCCN5C)cn5c4c3Oc3cc4ccccc4cc3-5)c2c1` (centres unmarked) [compound 1671]: the IC50 was 1.75 µM.

Take `CN1CCCC1CCNC(=O)c1cn2c3c(c(N4CCC(NC(=O)OC(C)(C)C)C4)ccc3c1=O)Oc1cc3ccccc3cc1-2` (centres unmarked) [compound 1535]: the IC50 is 0.75 µM.

Consider `CCCCOCCCNC(=O)c1cn2c3c(c(N4CCC(N)C4)c(F)cc3c1=O)Oc1cc3ccccc3cc1-2` (centres unmarked) [compound 1692], for which the IC50 is more than 15 µM.

With `O=C(NCCN1CCCC1)c1cn2c3c(c(SCCc4cnccn4)c(F)cc3c1=O)Oc1cc3ccccc3cc1-2` [compound 1767], the IC50 was 3.2 µM.

On to `CCN(CC)CCCC(C)NC(=O)c1cn2c3c(c(N4CCC(c5cnccn5)C4)c(F)cc3c1=O)Oc1ccccc1-2` (centres unmarked) [compound 1725], for which the IC50 is 3 µM.

`N=C(N)NCCCCNC(=O)c1cn2c3c(c(NCCN4CCOCC4)c(F)cc3c1=O)Oc1ccccc1-2` [compound 1634]: the IC50 is more than 15 µM.

In the case of `NCCCCNC(=O)c1cn2c3c(c(NCCN4CCCC4)c(F)cc3c1=O)Oc1ccccc1-2` [compound 1599], the IC50 was more than 15 µM.

`CC(C)N1CCN(c2c(F)cc3c(=O)c(C(=O)N4CCC(N5CCCC5)CC4)cn4c3c2Oc2ccccc2-4)CC1` [compound 1569]: the IC50 was more than 15 µM.

Regarding `COc1cccc(CCNC(=O)c2cn3c4c(c(N5CCC(N)C5)c(F)cc4c2=O)Oc2cc4ccccc4cc2-3)c1OC` (centres unmarked) [compound 1702], the IC50 was more than 15 µM.

For the compound `CN1CCCC1CCNC(=O)c1cn2c3c(c(NCCCNC(=O)OC(C)(C)C)c(F)cc3c1=O)Oc1cc3ccccc3cc1-2` (centres unmarked) [compound 1689], the IC50 came to 1.75 µM.

Regarding `CC1(C)CC(NC(=O)c2cn3c4c(c(NCCN5CCOCC5)ccc4c2=O)Oc2cc4ccccc4cc2-3)CC(C)(C)N1` [compound 1549], the IC50 is more than 15 µM.

Staying with this assay, now noted: read-out: Stop Data c-Myc μM; concentration at which 50% of the DNA was arrested (arrested:full-length 1:1).
In the case of `COc1ccc2c(CCNc3c(F)cc4c(=O)c(C(=O)NCCC5CCCN5C)cn5c4c3Oc3cc4ccccc4cc3-5)c[nH]c2c1` (centres unmarked) [compound 288], the IC50 stood at 1.75 µM.

In the case of `O=C(NCCN1CCOCC1)c1cn2c3c(c(NCCN4CCCC4)c(F)cc3c1=O)Oc1cc3ccccc3cc1-2` [compound 70], the IC50 is 2.5 µM.

Turning to `CN(C)CCCCNC(=O)c1cn2c3c(c(NCCN4CCOCC4)c(F)cc3c1=O)Oc1cc3ccccc3cc1-2` [compound 59], the IC50 turned out to be 2.5 µM.

Regarding `CC(C)(C)OC(=O)N[C@@H]1CCN(c2c(F)cc3c(=O)c(C(=O)NCCN4CCCC4)cn4c3c2Oc2c-4ccc3ccccc23)C1` [compound 133], the IC50 was determined as 1.75 µM.

Regarding `CN1CCN(CCCNC(=O)c2cn3c4c(c(NCCC5CCCN5C)c(F)cc4c2=O)Oc2cc4ccccc4cc2-3)CC1` (centres unmarked) [compound 123], the IC50 worked out at 1.75 µM.

Consider `NC1CCN(c2c(F)cc3c(=O)c(C(=O)NCCCn4ccnc4)cn4c3c2Oc2cc3ccccc3cc2-4)C1` (centres unmarked) [compound 200], for which the IC50 turned out to be 1.75 µM.

With `CN(C)CCCCNc1c(F)cc2c(=O)c(C(=O)NCCCN3CCOCC3)cn3c2c1Oc1cc2c(cc1-3)oc1ccccc12` [compound 162], the IC50 came to 1.75 µM.

As to `CN(C)CCCCNC(=O)c1cn2c3c(c(N4CCC(N)C4)c(F)cc3c1=O)Oc1ccccc1-2` (centres unmarked) [compound 460], the IC50 turned out to be 0.75 µM.

As for `CN1CCN(CCCNC(=O)c2cn3c4cc5c(cc4oc4c(NCCCN6CCOCC6)c(F)cc(c2=O)c43)c(=O)c2ccccc25)CC1` [compound 209], the IC50 was determined as 1.75 µM.

On to `N=C(N)NCC1CCCC(CNC(=O)c2cn3c4c(c(NCCCN5CCOCC5)c(F)cc4c2=O)Oc2cc4ccccc4cc2-3)C1` (centres unmarked) [compound 331], for which the IC50 came out at 1 µM.

With `NC1CCN(C(=O)c2cn3c4c(c(N5CC6CCCNC6C5)c(F)cc4c2=O)Oc2cc4ccccc4cc2-3)C1` (centres unmarked) [compound 282], the IC50 came out at 1.75 µM.

`O=C(c1cn2c3c(c(NCCCNC4CCCCC4)c(F)cc3c1=O)Oc1cc3ccccc3cc1-2)N1CCOCC1` [compound 117]: the IC50 is 1.75 µM.

As to `CN(C)CCC(=O)N[C@@H]1CCN(c2c(F)cc3c(=O)c(C(=O)NCCCN4CCN(C)CC4)cn4c3c2Oc2cc3c(cc2-4)oc2ccccc23)C1` [compound 175], the IC50 is 1.75 µM.

Consider `CCOC(=O)N1CCC(Nc2c(F)cc3c(=O)c(C(=O)NCCC4CCCN4C)cn4c3c2Oc2cc3ccccc3cc2-4)CC1` (centres unmarked) [compound 256], for which the IC50 amounted to 1.75 µM.

On to `CN1CCN(CCCNc2c(F)cc3c(=O)c(C(=O)NCCC4CCCN4C)cn4c3c2Oc2cc3ccccc3cc2-4)CC1` (centres unmarked) [compound 394], for which the IC50 came to 0.75 µM.

On to `CC1(C)CC(NC(=O)c2cn3c4c(c(N5CCC(N)C5)ccc4c2=O)Oc2cc4ccccc4cc2-3)CC(C)(C)N1` (centres unmarked) [compound 558], for which the IC50 turned out to be 0.375 µM.

Regarding `CN1CCCC1CCNC(=O)c1cn2c3c(c(N4CC[C@@H](NC(=O)OC(C)(C)C)C4)c(F)cc3c1=O)Oc1cc3ccccc3cc1-2` (some centres unmarked) [compound 120], the IC50 was determined as 1.75 µM.

For `COC(=O)C(CO)NC(=O)c1cn2c3cc4c(=O)c5ccccc5c(=O)c4cc3oc3c(NCCN4CCCC4)c(F)cc(c1=O)c32` (centres unmarked) [compound 345], the IC50 is 0.9 µM.

For the compound `N[C@@H]1CCN(c2c(F)cc3c(=O)c(C(=O)NCCN4CCOCC4)cn4c3c2Oc2c-4ccc3ccccc23)C1` [compound 77], the IC50 was found to be 2.5 µM.

As to `CN1CCN(CCCNC(=O)c2cn3c4c(c(N5CC[C@@H](NC(=O)OC(C)(C)C)C5)c(F)cc4c2=O)Oc2cc4ccccc4cc2-3)CC1` [compound 64], the IC50 worked out at 2.5 µM.

As for `O=C(NCCN1CCCC1)c1cn2c3cc4c(cc3oc3c(N5CC6CCCNC6C5)c(F)cc(c1=O)c32)c(=O)c1ccccc14` (centres unmarked) [compound 590], the IC50 came to 0.18 µM.

For `CC1(C)CC(NC(=O)c2cn3c4c(c(NCCN5CCCC5)ccc4c2=O)Oc2cc4ccccc4cc2-3)CC(C)(C)N1` [compound 447], the IC50 turned out to be 0.75 µM.

As for `CN1CCCC1CCNC(=O)c1cn2c3c(c(N4CCC(NC(=O)OC(C)(C)C)C4)c(F)c(N)c3c1=O)Oc1cc3ccccc3cc1-2` (centres unmarked) [compound 225], the IC50 was 1.75 µM.

`CN1CCCC1CCNC(=O)c1cn2c3c(c(NCCCN4CCOCC4)c(F)cc3c1=O)Oc1c-2ccc2ccccc12` (centres unmarked) [compound 128]: the IC50 turned out to be 1.75 µM.

In the case of `O=C(c1cn2c3c(c(NCCN4CCCC4)c(F)cc3c1=O)Oc1cc3ccccc3cc1-2)N1CCOCC1` [compound 43], the IC50 was determined as 2.5 µM.

Take `CN1CCN(CCCNc2c(F)cc3c(=O)c(C(=O)N4CCN(C)CC4)cn4c5cc6c(=O)c7ccccc7c(=O)c6cc5oc2c34)CC1` [compound 170]: the IC50 worked out at 1.75 µM.

Take `CN1CCN(CCCNc2c(F)cc3c(=O)c(C(=O)NCCN4CCOCC4)cn4c3c2Oc2cc3ccccc3cc2-4)CC1` [compound 60]: the IC50 amounted to 2.5 µM.
